Results on 16 compounds are retold here after ChEMBL document CHEMBL1137501, “Identification and synthesis of major metabolites of Vasopressin V2-receptor agonist WAY-151932, and antagonist, Lixivaptan” (Bioorg Med Chem Lett, 2007).

The term IC50 denotes the concentration that gives 50% inhibition. Higher therefore signals a need for much substance. The term inhibition denotes the drop in the measured response relative to a control, in per cent.

Assay [1] deals with Rattus norvegicus. Nature of the assay: Effect on urine volume in rat 10 mg/kg, po relative to control. Format: functional.
The target in assay [2] is T1, Vasopressin V2 receptor (Homo sapiens, UniProt P30518). Nature of the assay: Displacement of [3H]AVP from human vasopressin V2 receptor expressed in mouse LV2 cells. Format: cell-based. (In general: Loss of bound radioactivity is the signal in a displacement assay; it reports binding, not function.)
T1 sequence (P30518 whole entry): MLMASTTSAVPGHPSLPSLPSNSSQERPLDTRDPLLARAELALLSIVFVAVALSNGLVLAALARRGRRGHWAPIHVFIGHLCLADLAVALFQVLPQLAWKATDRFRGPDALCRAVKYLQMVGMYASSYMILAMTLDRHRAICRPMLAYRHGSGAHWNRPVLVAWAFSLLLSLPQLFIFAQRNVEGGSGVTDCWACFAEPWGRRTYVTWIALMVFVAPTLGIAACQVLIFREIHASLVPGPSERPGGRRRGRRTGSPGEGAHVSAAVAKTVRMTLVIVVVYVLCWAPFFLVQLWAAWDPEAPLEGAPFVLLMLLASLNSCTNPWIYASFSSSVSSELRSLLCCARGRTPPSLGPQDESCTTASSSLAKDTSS
Assay [3] concerns the target T2, Vasopressin V1a receptor (Homo sapiens, UniProt P37288). Nature of the assay: Displacement of [3H]manning ligand from human vasopressin V1a receptor expressed in CHO cells at 1000 nM. Format: cell-based.
Target sequence in this assay (P37288 whole entry, looked up): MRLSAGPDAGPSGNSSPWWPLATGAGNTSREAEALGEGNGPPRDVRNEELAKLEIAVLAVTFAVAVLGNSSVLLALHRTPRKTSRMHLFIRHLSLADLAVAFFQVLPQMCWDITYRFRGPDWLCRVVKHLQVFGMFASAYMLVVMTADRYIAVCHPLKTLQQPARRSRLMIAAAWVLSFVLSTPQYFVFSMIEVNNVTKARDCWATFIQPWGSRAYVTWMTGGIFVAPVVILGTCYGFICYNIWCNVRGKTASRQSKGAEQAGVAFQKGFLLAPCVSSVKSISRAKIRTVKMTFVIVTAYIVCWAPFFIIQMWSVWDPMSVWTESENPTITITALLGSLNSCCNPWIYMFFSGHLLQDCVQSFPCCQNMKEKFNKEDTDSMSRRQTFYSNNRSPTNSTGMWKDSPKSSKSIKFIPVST
The target of another assay is T3, Oxytocin receptor (Homo sapiens, UniProt P30559).
T3 sequence (P30559 whole entry): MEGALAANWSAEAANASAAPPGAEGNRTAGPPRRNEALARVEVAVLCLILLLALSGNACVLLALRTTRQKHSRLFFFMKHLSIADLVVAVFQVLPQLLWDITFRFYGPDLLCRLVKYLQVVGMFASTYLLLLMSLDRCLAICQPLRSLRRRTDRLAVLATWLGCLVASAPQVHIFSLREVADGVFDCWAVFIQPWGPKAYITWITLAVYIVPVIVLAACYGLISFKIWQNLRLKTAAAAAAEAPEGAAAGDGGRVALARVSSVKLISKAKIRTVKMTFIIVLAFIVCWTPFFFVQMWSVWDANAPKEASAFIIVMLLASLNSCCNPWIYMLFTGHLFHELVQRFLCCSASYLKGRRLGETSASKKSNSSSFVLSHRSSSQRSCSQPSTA
Nature of the assay: Displacement of [3H]oxytocin from human oxytocin receptor expressed in CHO cells. Format: cell-based.

The target of assay [4] is T1, Vasopressin V2 receptor. Nature of the assay: Displacement of [3H]AVP from human vasopressin V2 receptor expressed in CHO cells. Format: cell-based.
In assay [5] the target is T2, Vasopressin V1a receptor. Nature of the assay: Displacement of [3H]manning ligand from human vasopressin V1a receptor expressed in CHO cells. The format is cell-based.
Target sequence in this assay (P37288 whole entry): as the sequence (P37288 whole entry, looked up) above
For assay [6], the system named is Rattus norvegicus. Nature of the assay: Effect on urine volume in rat 10 mg/kg, iv relative to control. Format: functional.
Assay [7] concerns the target T4, Oxytocin receptor (Homo sapiens) (UniProt P30559).
T4 sequence (whole entry): T3 sequence (P30559 whole entry)
Nature of the assay: Displacement of [3H]oxytocin from human oxytocin receptor expressed in CHO cells at 100 nM. The format is cell-based.

For assay [8], the target named is T1, Vasopressin V2 receptor. Nature of the assay: Displacement of [3H]AVP from human vasopressin V2 receptor expressed in CHO cells at 100 nM. The format is cell-based.
Assay [9] has as its target T2, Vasopressin V1a receptor. Nature of the assay: Displacement of [3H]manning ligand from human vasopressin V1a receptor expressed in CHO cells at 100 nM. The format is cell-based.
Target sequence in this assay (P37288 whole entry, looked up): as the sequence (P37288 whole entry, looked up) above
In assay [10] the target is T4, Oxytocin receptor (Homo sapiens). Nature of the assay: Displacement of [3H]oxytocin from human oxytocin receptor expressed in CHO cells at 1000 nM. Format: cell-based.
The target in assay [11] is T1, Vasopressin V2 receptor. Nature of the assay: Displacement of [3H]AVP from human vasopressin V2 receptor expressed in CHO cells at 1000 nM. Format: cell-based.

Structures are written as SMILES.

On to `Cc1ccc(F)cc1C(=O)Nc1ccc(C(=O)N2CC3=CCC(=O)N3Cc3ccccc32)c(Cl)c1`, for which the Activity in the assay with Rattus norvegicus [1] was 131%.
In the case of `Cc1ccn(-c2ccc(C(=O)N3C=C4CCC(=O)N4Cc4ccccc43)c(Cl)c2)n1`, at Vasopressin V2 receptor [2], the half-inhibitory concentration (IC50) turned out to be 1210 nM. In addition, in the assay on Rattus norvegicus [1], the Activity came to 0%. Besides, the inhibition at Vasopressin V1a receptor [3] was 4%.
Consider `Cc1ccc(F)cc1C(=O)Nc1ccc(C(=O)N2C=C3CCC(=O)N3Cc3ccccc32)c(Cl)c1`, for which the IC50 at Oxytocin receptor is more than 1000 nM; on Vasopressin V2 receptor [4] it was 11 nM; at Vasopressin V1a receptor [5], more than 1000 nM. Also, the Activity in the assay on Rattus norvegicus [1] was 133%.
For the compound `Cc1ccc(F)cc1C(=O)Nc1ccc(C(=O)Nc2ccccc2Cn2cccc2C(=O)O)c(Cl)c1`, the half-inhibitory concentration (IC50) on Oxytocin receptor, at Vasopressin V2 receptor [4] and on Vasopressin V1a receptor [5] was more than 1000 nM in each case. The Activity with Rattus norvegicus [6] stood at 6.9%.
As to `Cc1ccc(F)cc1C(=O)Nc1ccc(C(=O)Nc2ccccc2Cn2cccc2C=O)c(Cl)c1`, the inhibition in assay [7] is 12%; at Vasopressin V2 receptor [8], 3%; at Vasopressin V1a receptor [9], -6%.
Turning to `O=C(c1ccc(-n2ccc(CO)n2)cc1Cl)N1Cc2cccn2Cc2ccccc21`, the Activity in the assay with Rattus norvegicus [1] is on record as -82%.
`Cc1ccn(-c2ccc(C(=O)N3CC4=CCC(=O)N4Cc4ccccc43)c(Cl)c2)n1`: the inhibition in assay [10] is 9%; on Vasopressin V2 receptor [11] it was 40%; on Vasopressin V1a receptor [3], -3%. The Activity in the assay with Rattus norvegicus [1] came out at 0%.
In the case of `Cc1ccn(-c2ccc(C(=O)Nc3ccccc3Cn3cccc3C(=O)O)c(Cl)c2)n1`, the inhibition in [10] is -10%; at Vasopressin V2 receptor [11] it was 1%.
Compound `Cc1ccn(-c2ccc(C(=O)N3Cc4cccn4Cc4ccccc43)c(Cl)c2)n1` came in with an IC50 at Oxytocin receptor of 353 nM. The Activity with Rattus norvegicus [1] is -82%.
For `Cc1ccc(F)cc1C(=O)Nc1ccc(C(=O)Nc2ccccc2C(=O)O)c(Cl)c1`, the IC50 on Oxytocin receptor, on Vasopressin V2 receptor [4] and on Vasopressin V1a receptor [5] was more than 1000 nM each time. In the assay on Rattus norvegicus [6], the Activity was -6%.
As to `Cc1ccn(-c2ccc(C(=O)N3CC4C=CC(=O)N4Cc4ccccc43)c(Cl)c2)n1` (stereo not drawn), the inhibition was -4% in [10], 16% at Vasopressin V2 receptor [11] and -8% on Vasopressin V1a receptor [3]. The Activity with Rattus norvegicus [1] was 16%.
`Cc1ccc(F)cc1C(=O)Nc1ccc(C(=O)N2C=C3C(O)CC(=O)N3Cc3ccccc32)c(Cl)c1` (stereo not drawn): the Activity in the assay with Rattus norvegicus [1] came to 102%.
In the case of `Cc1ccc(F)cc1C(=O)Nc1ccc(C(=O)N2Cc3cccn3Cc3ccccc32)c(Cl)c1` [LIXIVAPTAN], the half-maximal inhibitory concentration (IC50) at Oxytocin receptor amounted to 519 nM; at Vasopressin V1a receptor [5] it was 124 nM. The Activity in the assay with Rattus norvegicus [1] is reported as 740%.
With `O=C(O)c1ccn(-c2ccc(C(=O)N3Cc4cccn4Cc4ccccc43)c(Cl)c2)n1`, in the assay with Rattus norvegicus [1], the Activity stood at 0%.
For `Cc1ccc(F)cc1C(=O)Nc1ccc(C(=O)N2CC3C=CC(=O)N3Cc3ccccc32)c(Cl)c1` (stereo not drawn), the figures for the half-inhibitory concentration (IC50) at Oxytocin receptor, on Vasopressin V2 receptor [4] and at Vasopressin V1a receptor [5] were more than 1000 nM, 34 nM and more than 1000 nM, respectively. In addition, in the assay on Rattus norvegicus [1], the Activity is -26%.
With `Cc1ccn(-c2ccc(C(=O)Nc3ccccc3C(=O)O)c(Cl)c2)n1`, the inhibition on Vasopressin V2 receptor [11] is 3%; on Vasopressin V1a receptor [3], -7%.
